Source: ChEMBL document CHEMBL4825684, “Design, synthesis and biological evaluation of N-anthraniloyl tryptamine derivatives as pleiotropic molecules for the therapy of malignant glioma” (Eur J Med Chem, 2021)
pIC50: −log10 of the molar value. Active and inactive are the calls of the source. No cut-off for these calls is given here.

How the values were obtained:
U-87 MG [1] = test: Cell cycle arrest in human U-87 MG cells assessed as accumulation at G2/M phase at 8 uM incubated for 48 hrs by PI staining based flow cytometry assay (reference value: 8%); type: functional, U-87MG ATCC
[2] = Acute toxicity in Kunming mouse assessed behavioural changes at 1000 mg/kg, ip measured for 14 days; type: organism-based; details: in vivo, 336 h, time 14 day
[3] = Toxicity in rat C6 cells inoculated orthotopic Sprague-Dawley rat model assessed as autonomic movement at 50 mg/kg, ip twice a day administered for 13 days of tumor implantation by open field test; type: organism-based; details: in vivo, 312 h, time 13 day
U-87 MG [4] = test: Induction of apoptosis in human U-87 MG cells assessed as late apoptotic cells at 2 uM incubated for 48 hrs by […] double staining based flow cytometry assay (reference value: 0.61%); type: functional, U-87MG ATCC
U-87 MG [5] = test: Antimigratory activity against human U-87 MG cells assessed as inhibition of migration incubated for 24 hrs by matrigel trans well plate assay; type: functional, cell-based; details: U-87MG ATCC
U-251 [6] = test: Induction of apoptosis in human U-251 cells assessed as early apoptotic cells at 4 uM incubated for 48 hrs by […] double staining based flow cytometry assay (reference value: 0.73%); type: functional
[7] = Toxicity in rat C6 cells inoculated orthotopic Sprague-Dawley rat model assessed as changes in blood at 50 mg/kg, ip twice a day administered for 13 days of tumor implantation by routine blood test; type: organism-based; details: in vivo, 312 h, time 13 day
U-87 MG [8] = test: Induction of apoptosis in human U-87 MG cells assessed as increase in ROS generation at 1 to 4 uM incubated for 48 hrs by Western blot analysis relative to control; type: functional, cell-based; details: U-87MG ATCC, dose 1-4 µM
[9] = Half life in Sprague-Dawley rat at 60 mg/kg, ip measured up to 24 hrs by LC-MS analysis; type: ADME, organism-based; details: in vivo
[10] = target: Tyrosine-protein kinase JAK2 (Homo sapiens) (UniProt O60674); test: Inhibition JAK2 phosphorylation in human U-251 cells incubated up to 8 hrs by Western blot analysis; type: cell-based; details: time hrs <=8
[11] = Plasma concentration in Sprague-Dawley rat at 60 mg/kg, ip measured up to 24 hrs by LC-MS analysis; type: ADME, organism-based
[12] = target: Signal transducer and activator of transcription 3 (Homo sapiens) (UniProt P40763); test: Inhibition of STAT3 nuclear translocation in human U251 cells incubated for 24 hrs by Hoechst staining based fluorescence confocal imaging analysis; type: cell-based; details: U-251
[13] = target: Tyrosine-protein kinase JAK2 (Homo sapiens) (UniProt O60674); test: Inhibition JAK2 phosphorylation in human U-87 MG cells incubated up to 8 hrs by Western blot analysis; type: cell-based; details: time hrs <=8
C6 [14] = test: Antitumor activity against rat C6 cells inoculated orthotopic Sprague-Dawley rat model assessed as decrease in VEGF-A in tumor tissue at 50 mg/kg, ip twice a day treated 3 days after tumor cell injection measured for 13 days after tumor implantation by Western blot analysis; type: functional, organism-based; details: time 3.0 day
U-87 MG [15] = test: Induction of apoptosis in human U-87 MG cells assessed as viable cells at 2 uM incubated for 48 hrs by Annexin VIM double staining based flow cytometry assay (reference value: 97.8%); type: functional, U-87MG ATCC; details: read-out: Activity
C6 [16] = test: Antiproliferative activity against rat C6 cells assessed as growth inhibition incubated for 72 hrs by CCK-8 assay; type: functional, cell-based; details: C6, 72 h
U-87 MG [17] = test: Anti-invasion activity against human U-87 MG cells assessed as inhibition of invasion incubated for 24 hrs by matrigel trans well plate assay; type: functional, cell-based; details: U-87MG ATCC
U-251 [18] = test: Induction of apoptosis in human U-251 cells assessed as necrotic cells at 4 uM incubated for 48 hrs by […] double staining based flow cytometry assay (reference value: 1.32%); type: functional
C6 [19] = test: Antitumor activity against rat C6 cells inoculated orthotopic Sprague-Dawley rat model assessed as reduction tumor weight at 50 mg/kg, ip twice a day treated 3 days after tumor cell injection measured for 13 days after tumor implantation; type: functional, organism-based; details: time 3.0 day
U-251 [20] = test: Antiproliferative activity against human U-251 cells assessed as decrease in proliferation at 4 uM measured after 24 hrs by EdU assay relative to control; type: functional, cell-based
U-251 [21] = test: Induction of apoptosis in human U-251 cells assessed as viable cells at 8 uM incubated for 48 hrs by […] double staining based flow cytometry assay (reference value: 96.6%); type: functional; details: read-out: Activity
C6 [22] = test: Antitumor activity against rat C6 cells inoculated orthotopic Sprague-Dawley rat model assessed as inhibition of angiogenesis brain tissue at 50 mg/kg, ip twice a day administered for 13 days of tumor implantation; type: functional, organism-based; details: time 13.0 day
U-87 MG [23] = test: Induction of apoptosis in human U-87 MG cells assessed as increase in cytochrome c release at 1 to 4 uM incubated for 48 hrs by Western blot analysis relative to control; type: functional, cell-based; details: U-87MG ATCC, dose 1-4 µM
U-87MG ATCC = test: Reduction in MMP9 expression in human U-87 MG cells incubated for 24 hrs by Western blot analysis; type: functional, cell-based; details: dose 1-4 µM
U-251 [24] = test: Antimigratory activity against human U-251 cells assessed as inhibition of migration incubated for 24 hrs by matrigel trans well plate assay; type: functional, cell-based; details: dose 1-4 µM
[25] = Acute toxicity in Kunming mouse assessed mortality at 1000 mg/kg, ip measured for 14 days; type: organism-based; details: in vivo, 336 h, time 14 day
Rattus norvegicus = test: Anxiolytic activity in rat C6 cells inoculated orthotopic Sprague-Dawley rat model assessed as increase in time spent in central part at 50 mg/kg, ip twice a day administered for 13 days of tumor implantation by open field test relative to control; type: functional, organism-based; details: time 13.0 day
[26] = target: T1, Prostaglandin G/H synthase 2 (Homo sapiens, UniProt P35354); test: Inhibition of human COX2 assessed as fluorescence by microplate reader
T1 sequence (P35354 whole entry): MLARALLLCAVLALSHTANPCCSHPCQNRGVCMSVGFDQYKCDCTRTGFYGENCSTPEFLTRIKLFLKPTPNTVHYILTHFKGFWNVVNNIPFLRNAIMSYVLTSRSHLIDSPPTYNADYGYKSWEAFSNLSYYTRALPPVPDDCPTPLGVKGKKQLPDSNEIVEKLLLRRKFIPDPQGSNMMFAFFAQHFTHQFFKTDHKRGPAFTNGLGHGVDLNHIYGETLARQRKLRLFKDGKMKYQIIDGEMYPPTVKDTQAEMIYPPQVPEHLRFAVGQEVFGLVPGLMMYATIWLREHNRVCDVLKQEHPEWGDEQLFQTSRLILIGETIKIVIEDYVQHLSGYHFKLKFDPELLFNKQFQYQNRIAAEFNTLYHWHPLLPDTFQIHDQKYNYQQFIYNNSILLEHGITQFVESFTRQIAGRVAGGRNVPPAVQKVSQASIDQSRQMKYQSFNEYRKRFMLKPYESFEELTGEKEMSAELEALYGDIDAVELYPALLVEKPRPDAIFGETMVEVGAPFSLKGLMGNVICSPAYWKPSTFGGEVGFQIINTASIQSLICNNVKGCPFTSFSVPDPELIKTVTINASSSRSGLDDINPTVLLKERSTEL

[27] = Toxicity in rat C6 cells inoculated orthotopic Sprague-Dawley rat model assessed as body weight change at 50 mg/kg, ip twice a day administered for 13 days of tumor implantation; type: organism-based; details: in vivo, 312 h, time 13 day
U-251 [28] = test: Induction of apoptosis in human U-251 cells assessed as necrotic cells at 2 uM incubated for 48 hrs by […] double staining based flow cytometry assay (reference value: 1.32%); type: functional

Tyrosine-protein kinase JAK2 (Homo sapiens), sequence (O60674 whole entry): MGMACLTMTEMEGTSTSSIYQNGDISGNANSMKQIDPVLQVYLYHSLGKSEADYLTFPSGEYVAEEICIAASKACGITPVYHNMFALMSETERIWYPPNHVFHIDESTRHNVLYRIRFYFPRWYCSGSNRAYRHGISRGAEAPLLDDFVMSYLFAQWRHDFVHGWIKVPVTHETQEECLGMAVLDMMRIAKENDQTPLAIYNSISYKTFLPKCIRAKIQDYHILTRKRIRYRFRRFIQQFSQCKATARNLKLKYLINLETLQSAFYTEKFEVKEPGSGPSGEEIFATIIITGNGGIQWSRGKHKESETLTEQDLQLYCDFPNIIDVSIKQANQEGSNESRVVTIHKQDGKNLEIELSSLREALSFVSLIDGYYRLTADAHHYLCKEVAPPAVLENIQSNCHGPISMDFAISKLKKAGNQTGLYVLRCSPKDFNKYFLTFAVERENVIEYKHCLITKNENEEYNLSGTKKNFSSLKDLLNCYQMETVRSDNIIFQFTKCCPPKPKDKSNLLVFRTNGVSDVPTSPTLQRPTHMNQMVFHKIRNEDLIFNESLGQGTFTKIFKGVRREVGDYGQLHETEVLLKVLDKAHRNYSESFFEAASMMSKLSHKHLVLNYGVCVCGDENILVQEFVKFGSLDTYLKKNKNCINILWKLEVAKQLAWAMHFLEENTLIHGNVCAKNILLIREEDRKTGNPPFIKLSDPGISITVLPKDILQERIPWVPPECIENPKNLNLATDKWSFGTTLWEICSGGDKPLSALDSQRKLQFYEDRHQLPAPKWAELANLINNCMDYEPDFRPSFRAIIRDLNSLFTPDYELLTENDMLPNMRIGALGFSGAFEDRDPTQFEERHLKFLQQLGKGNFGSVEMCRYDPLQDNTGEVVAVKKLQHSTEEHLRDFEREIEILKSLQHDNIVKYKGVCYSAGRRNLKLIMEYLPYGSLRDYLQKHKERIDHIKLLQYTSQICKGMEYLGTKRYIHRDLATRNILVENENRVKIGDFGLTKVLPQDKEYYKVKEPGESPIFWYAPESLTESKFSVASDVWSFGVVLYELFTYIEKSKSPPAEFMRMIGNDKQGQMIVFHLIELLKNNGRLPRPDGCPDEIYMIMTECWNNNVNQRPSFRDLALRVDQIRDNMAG
Signal transducer and activator of transcription 3 (Homo sapiens), sequence (P40763 whole entry): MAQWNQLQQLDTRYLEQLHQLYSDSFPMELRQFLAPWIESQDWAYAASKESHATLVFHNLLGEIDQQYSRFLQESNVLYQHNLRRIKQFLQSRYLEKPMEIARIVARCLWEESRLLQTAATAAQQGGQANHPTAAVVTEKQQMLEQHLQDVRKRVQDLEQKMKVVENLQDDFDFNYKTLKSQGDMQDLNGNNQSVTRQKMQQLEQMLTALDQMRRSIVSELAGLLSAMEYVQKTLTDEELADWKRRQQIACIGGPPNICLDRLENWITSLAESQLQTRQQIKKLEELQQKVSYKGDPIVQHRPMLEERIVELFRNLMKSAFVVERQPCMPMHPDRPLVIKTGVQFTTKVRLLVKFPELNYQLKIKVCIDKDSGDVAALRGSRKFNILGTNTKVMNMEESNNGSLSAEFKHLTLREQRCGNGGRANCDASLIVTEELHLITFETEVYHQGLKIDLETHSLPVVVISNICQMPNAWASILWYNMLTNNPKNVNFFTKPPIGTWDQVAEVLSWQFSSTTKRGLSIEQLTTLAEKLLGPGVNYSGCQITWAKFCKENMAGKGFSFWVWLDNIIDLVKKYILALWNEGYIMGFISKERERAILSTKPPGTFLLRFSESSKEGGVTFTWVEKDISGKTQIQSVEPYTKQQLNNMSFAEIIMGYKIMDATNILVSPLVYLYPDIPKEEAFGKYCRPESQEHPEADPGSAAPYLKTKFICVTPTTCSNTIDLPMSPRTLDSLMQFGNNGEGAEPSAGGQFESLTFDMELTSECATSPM

## COc1cc(Nc2ccccc2C(=O)NCCc2c[nH]c3ccccc23)cc(OC)c1OC
U-87 MG [1]
  Activity: 68.2%
[2]
  Activity: Non-Toxic
[3]
  Activity: Non-Toxic
U-87 MG [4]
  Activity: 1.53%
U-87 MG [5]
  Activity: Active
U-251 [6]
  Activity: 7.95%
[7]
  Activity: Non-Toxic
U-87 MG [8]
  Activity: Active
[9]
  half-life: 11.4 h
[10]
  inhibition: Active
[11]
  concentration at 24 h: 0.2 µg/mL
[12]
  inhibition: Active
[13]
  inhibition: Active
C6 [14]
  Activity: Active
U-87 MG [15]
  viability at 2 µM: 95.1%
C6 [16]
  pIC50: 5.37
U-87 MG [17]
  Activity: Active
U-251 [18]
  Activity: 4.78%
C6 [19]
  Activity: Active
U-251 [20]
  Activity: Active
U-251 [21]
  viability at 8 µM: 56.6%
C6 [22]
  Activity: Active
U-87 MG [23]
  Activity: Active
U-87MG ATCC
  Activity: Dose-Dependent Effect
U-251 [24]
  Activity: Active
[25]
  Activity: Non-Toxic
Rattus norvegicus
  Activity: Active
[26]
  pIC50: 5.08
[27]
  Activity: Non-Toxic
U-251 [28]
  Activity: 4.28%
